Measured values from patent publication US8815857B2 (Boehringer Ingelheim International GmbH, priority 2011, dated 2014).
≈ marks a conversion by molar mass, not a printed value.

Experiments:
[1] = Assessment of solubility: HT solubility in pION buffer, UV spectrophotometry; conditions: kinetic from dmso stock
Experimental: Solubility is measured by the following method.
DMSO stock samples at 10 mM concentration are prepared. […] The samples are pierced and 100 ul of thawed samples are transferred into the PCR plate for analysis. Each sample is run in duplicate at each pH (pH 4.5 and 7.4). Up to 95 samples can be run in replicate at 2 pH's+1 DMSO (blank).
Preparation of pH 4.5 and 7.4 Buffers:
• pH 4.5 buffer:—To 12.5 of system solution (pION)qs to 500 mL of distilled water (pH 2.85-2.90); adjust the pH to pH 4.5 with 0.5 N NaOH. • pH 7.4 buffer: To 12.5 of system solution (pION)qs to 500 mL of distilled water (pH 2.85-2.90); adjust the pH to pH 7.4 with 0.5N NaOH. […] Procedure: Preparation of UV Blank Plate:
75 ul of buffer (pH 7.4 or pH 4.5) is added to UV plate followed by addition of 70 ul of N-propanol. The solution is mixed and the blank spectrum is read using spectrophotometer.
Preparation of Reference UV Plate:
10 ul of each stock sample (including DMSO control) is added to 190 ul of N-propanol to prepare the reference stock plate. Reference stock samples are mixed and 5 ul of each stock sample is added to UV blank plate after it is read spectrophotometrically. The reference stock sample is mixed with blank solution in UV plate and the reference spectrum is read using UV spectrophotometer.
Preparation of Sample for Incubation:
Solubility at pH 7.4:6 ul of each stock sample (including DMSO control) is added to the storage plate containing 600 ul of pH 7.4 buffer, mixed and incubated for 16-19 h. The plate is sealed well during the incubation process. The DMSO content in the sample is 1.0%. The concentration in deep well plates is 100 uM
6 ul of each stock sample (including DMSO control) is added to the deep well plate containing 600 ul of pH 4.5 buffer, mixed and incubated for 16-19 h. The plate is sealed well during the incubation process. The DMSO content in the sample is 1.0%. The concentration in deep well plates is 100 uM
Preparation of Sample UV Plate:
At the end of the incubation period, 100 uL of sample from the storage plate is vacuum filtered using a filter plate. This step wets the filters and the filtrate is discarded. Another 200 ul of the sample from the deep well plate is vacuum filtered using the same filter block but a clean filter plate. 75 ul of the filtrate from the filter plate is transferred to a UV sample plate. 75 ul of N-propanol is added to this UV plate. The solution is mixed and the spectrum is read using the UV spectrophotometer.
The spectra collected for blank, reference and sample from 250-498 nm is analyzed using pION software. If the sample precipitates out, the solubility is reported as XX μg/ml.

[2] = target: T1, human soluble guanylate cyclase alpha 1 and beta 1 subunits (sGC) stably expressed in Chinese hamster ovary cells (Homo sapiens, UniProt Q02108+Q02153); experiment: sGC cellular activator assay: cGMP in CHO cells expressing human sGC, preincubated with ODQ; format: cell-based; conditions: 40 microM ODQ preincubation, 30 min at room temperature, presence or absence of 50% human serum not given, read-out: EC50 nM, Activity of Compounds in Cellular Assay
T1 construct: expressed in transfected cells; host or cells: Chinese hamster ovary cells, stably transfected
T1 sequence (Q02108 1-690 partner): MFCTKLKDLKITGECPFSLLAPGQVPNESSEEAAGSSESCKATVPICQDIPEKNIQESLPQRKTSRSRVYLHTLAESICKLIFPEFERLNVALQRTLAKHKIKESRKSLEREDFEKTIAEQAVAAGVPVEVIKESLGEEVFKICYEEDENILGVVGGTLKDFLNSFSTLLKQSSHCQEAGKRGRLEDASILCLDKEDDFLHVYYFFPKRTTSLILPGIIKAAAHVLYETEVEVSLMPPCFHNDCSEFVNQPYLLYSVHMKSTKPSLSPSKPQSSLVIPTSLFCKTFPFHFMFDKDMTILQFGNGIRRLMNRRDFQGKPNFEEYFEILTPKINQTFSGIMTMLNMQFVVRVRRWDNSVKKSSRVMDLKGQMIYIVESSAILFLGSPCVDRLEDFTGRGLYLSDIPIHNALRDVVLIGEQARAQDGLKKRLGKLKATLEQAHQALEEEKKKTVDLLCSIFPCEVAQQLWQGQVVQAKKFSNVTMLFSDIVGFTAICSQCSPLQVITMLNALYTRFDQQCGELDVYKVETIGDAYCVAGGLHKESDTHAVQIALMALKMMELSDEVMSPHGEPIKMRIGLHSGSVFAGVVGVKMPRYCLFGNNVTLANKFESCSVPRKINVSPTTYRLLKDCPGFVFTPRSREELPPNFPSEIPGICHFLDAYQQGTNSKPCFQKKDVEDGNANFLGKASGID
T1 sequence (Q02153 1-619): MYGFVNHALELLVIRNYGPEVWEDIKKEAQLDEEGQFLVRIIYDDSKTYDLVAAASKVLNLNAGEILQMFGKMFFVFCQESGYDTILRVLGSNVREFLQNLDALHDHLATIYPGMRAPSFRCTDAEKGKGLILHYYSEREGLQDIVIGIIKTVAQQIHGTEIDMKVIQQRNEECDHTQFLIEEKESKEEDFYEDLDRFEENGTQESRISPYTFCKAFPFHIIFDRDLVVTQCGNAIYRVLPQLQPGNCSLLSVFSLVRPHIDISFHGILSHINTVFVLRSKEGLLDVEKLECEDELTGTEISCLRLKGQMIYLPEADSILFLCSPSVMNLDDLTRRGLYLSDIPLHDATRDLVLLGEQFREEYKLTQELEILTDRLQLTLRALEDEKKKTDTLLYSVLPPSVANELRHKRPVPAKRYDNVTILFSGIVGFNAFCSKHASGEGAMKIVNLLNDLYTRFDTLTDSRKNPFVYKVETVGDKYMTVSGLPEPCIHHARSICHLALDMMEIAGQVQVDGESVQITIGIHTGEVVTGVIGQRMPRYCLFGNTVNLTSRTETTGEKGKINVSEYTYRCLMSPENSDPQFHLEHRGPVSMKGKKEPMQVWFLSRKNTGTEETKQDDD
How it was run: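 EC50 values derive from HTRF cGMP measurement after test compounds act for thirty minutes at room temperature, with or without 50% human serum. Before dosing, the sGC-transfected CHO cells spend one hour with the inhibitor ODQ (40 microM) in IBMX- and 0.1% BSA-containing buffer.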

[3] = pH 6.8, aqueous buffer, Solubility (pH 6.8), pH 6.8
[4] = pION system solution buffer, pH 4.5, pH 4.5, aqueous buffer, Solubility (pH 4.5), pH 4.5 buffer, 16-19 h incubation, 1.0% DMSO
[5] = pION system solution buffer, pH 7.4, pH 7.4, aqueous buffer, Solubility (pH 7.4), pH 7.4 buffer, 16-19 h incubation, 1.0% DMSO

Row | SMILES | solubility [1, 3] [µg/mL] | solubility [1, 4] [µg/mL] | EC50 [2] [nM] | solubility [1, 5] [µg/mL]
1 | Cc1ccc(OCc2ccc(CN3CCOCC3C)cc2C#N)c(-c2csc(N3C[C@H]4CC[C@@H](C3)[C@H]4C(=O)O)n2)c1 (stereo partly shown) [Compound 359] | 5.8 (≈ 10.1 µM) | 12 (≈ 21 µM) | 36 | –
2 | Cc1ccc(OCc2ccc(C(=O)N3CCCCC3)cc2C)c(-c2csc(N3CC4(CC4C(=O)O)C3)n2)c1 (stereo not shown) [Compound 248] | 47 (≈ 88.4 µM) | < 0.1 | 110 | –
3 | CNC(=O)CN(C)C(=O)c1ccc(COc2ccc(C)cc2-c2csc(N3C[C@H]4CC[C@@H](C3)[C@H]4C(=O)O)n2)c(C)c1 [Compound 347] | 70 (≈ 121 µM) | 5.8 (≈ 10.1 µM) | 260 | > 53
4 | Cc1ccc(OCc2ccc(CN3CCS(=O)(=O)CC3)cc2C#N)c(-c2csc(N3C[C@H]4CC[C@@H](C3)[C@H]4C(=O)O)n2)c1 [Compound 267] | 13 (≈ 21.4 µM) | < 0.1 | 44 | –
5 | CCCC1(C(=O)O)C2CCC1CN(c1nc(-c3cc(C)ccc3OCc3ccc(C(=O)N4CCCCC4)cc3C)cs1)C2 (stereo not shown) [Compound 262] | 12 (≈ 19.9 µM) | < 0.1 | 980 | –
6 | Cc1ccc(OCc2ccc(C(=O)N3CCCCC3)cc2C)c(-c2csc(N3CC(C4(C(=O)O)CC4)C3)n2)c1 [Compound 260] | 14 (≈ 25.7 µM) | < 0.1 | 590 | –
7 | Cc1ccc(OCc2ccc(C(=O)N3CCOCC3)cc2C)c(-c2csc(N3CC[C@@]4(C(=O)O)C[C@H]4C3)n2)c1 [Compound 224] | 54 (≈ 98.6 µM) | < 0.1 | 5.8 | –
8 | Cc1ccc(OCc2ccc(C(=O)N(C)C)cc2C)c(-c2csc(N3C[C@H]4CC[C@@H](C3)[C@H]4C(=O)O)n2)c1 [Compound 304] | 60 (≈ 115 µM) | < 0.1 | 23 | –
9 | CCN(CCO)C(=O)c1ccc(COc2ccc(C)cc2-c2csc(N3C[C@H]4CC[C@@H](C3)[C@H]4C(=O)O)n2)c(C)c1 [Compound 298] | 66 (≈ 117 µM) | 0.32 (≈ 0.568 µM) | 59 | –
10 | CO[C@@H]1CCN(C(=O)c2ccc(COc3ccc(C)cc3-c3csc(N4C[C@H]5CC[C@@H](C4)[C@H]5C(=O)O)n3)c(C)c2)C1 [Compound 329] | 56 (≈ 97.3 µM) | < 0.1 | 23 | –
11 | Cc1ccc(OCc2ccc(C(=O)N(C)CC3(CO)CC3)cc2C)c(-c2csc(N3C[C@H]4CC[C@@H](C3)[C@H]4C(=O)O)n2)c1 [Compound 342] | 55 (≈ 93.3 µM) | < 0.1 | 110 | –
12 | Cc1ccc(OCc2ccc(C(=O)N3CCN(C)C(=O)C3)c(C)c2)c(-c2csc(N3C[C@H]4CC[C@@H](C3)[C@H]4C(=O)O)n2)c1 [Compound 286] | 83 (≈ 141 µM) | 1 (≈ 1.7 µM) | 37 | –
13 | Cc1ccc(OCc2ccc(C(=O)N(C)Cc3cncn3C)cc2C)c(-c2csc(N3C[C@H]4CC[C@@H](C3)[C@H]4C(=O)O)n2)c1 [Compound 331] | 47 (≈ 78.4 µM) | 42 (≈ 70 µM) | 140 | –
14 | Cc1ccc(OCc2ccc(C(=O)N3CCC(O)CC3)cc2C)c(-c2csc(N3C[C@H]4CC[C@@H](C3)[C@H]4C(=O)O)n2)c1 [Compound 301] | 65 (≈ 113 µM) | 0.24 (≈ 0.417 µM) | 57 | –

Now from value to compound:

Row | solubility [1, 3] [µg/mL] | solubility [1, 4] [µg/mL] | EC50 [2] [nM] | solubility [1, 5] [µg/mL] | SMILES
15 | 35 (≈ 59.3 µM) | 0.14 (≈ 0.237 µM) | 30 | – | CCOC1CCN(C(=O)c2ccc(COc3ccc(C)cc3-c3csc(N4C[C@H]5CC[C@@H](C4)[C@H]5C(=O)O)n3)c(C)c2)C1 (stereo partly shown) [Compound 332]
16 | 41 (≈ 68.8 µM) | < 0.1 | 20 | – | Cc1ccc(OCc2ccc(C(=O)N3CCC(F)(F)CC3)cc2C)c(-c2csc(N3C[C@H]4CC[C@@H](C3)[C@H]4C(=O)O)n2)c1 [Compound 317]
17 | 42 (≈ 71.2 µM) | 0.15 (≈ 0.254 µM) | 19 | – | COC1CCCN(C(=O)c2ccc(COc3ccc(C)cc3-c3csc(N4C[C@H]5CC[C@@H](C4)[C@H]5C(=O)O)n3)c(C)c2)C1 (stereo partly shown) [Compound 322]
18 | 58 (≈ 102 µM) | 0.3 (≈ 0.526 µM) | 13 | – | Cc1ccc(OCc2ccc(C(=O)N3CCCCC3)cc2C#N)c(-c2csc(N3C[C@H]4CC[C@@H](C3)[C@H]4C(=O)O)n2)c1 [Compound 263]
19 | 26 (≈ 45.6 µM) | 46 (≈ 80.6 µM) | 44 | > 54 | Cc1ccc(OCc2ccc(CN3C[C@@H]4C[C@H]3CO4)cc2C#N)c(-c2csc(N3C[C@H]4CC[C@@H](C3)[C@H]4C(=O)O)n2)c1 [Compound 232]
20 | 71 (≈ 120 µM) | 0.27 (≈ 0.456 µM) | 41 | 37 (≈ 62.5 µM) | Cc1ccc(OCc2ccc(C(=O)N(C)CCC(C)(C)O)cc2C)c(-c2csc(N3C[C@H]4CC[C@@H](C3)[C@H]4C(=O)O)n2)c1 [Compound 348]
21 | 63 (≈ 107 µM) | 58 (≈ 98.5 µM) | 29 | – | Cc1ccc(OCc2ccc(C(=O)N3CC[C@H](N(C)C)C3)cc2C)c(-c2csc(N3C[C@H]4CC[C@@H](C3)[C@H]4C(=O)O)n2)c1 [Compound 311]
22 | 54 (≈ 90 µM) | < 0.1 | 57 | > 60 | Cc1ccc(OCc2ccc(C(=O)N(C)Cc3cnn(C)c3)cc2C)c(-c2csc(N3C[C@H]4CC[C@@H](C3)[C@H]4C(=O)O)n2)c1 [Compound 315]
23 | 13 (≈ 22.1 µM) | 0.18 (≈ 0.306 µM) | 7.6 | – | CCN1CCN(Cc2ccc(COc3ccc(C)cc3-c3csc(N4CC5CCC(C4)C5C(=O)O)n3)c(C)c2)CC1=O (stereo not shown) [Compound 291]
24 | 19 (≈ 32.7 µM) | < 0.1 | 580 | – | Cc1ccc(OCc2ccc(CN3CCS(=O)(=O)CC3)cc2C)c(-c2csc(N3CC(C4(C(=O)O)CC4)C3)n2)c1 [Compound 259]
25 | 6.1 (≈ 10.3 µM) | 0.16 (≈ 0.271 µM) | 79 | – | Cc1ccc(OCc2ccc(C(=O)N3CCCC(C)(O)C3)cc2C)c(-c2csc(N3C[C@H]4CC[C@@H](C3)[C@H]4C(=O)O)n2)c1 (stereo partly shown) [Compound 336]
26 | 8.2 (≈ 13.6 µM) | < 0.1 | 550 | – | COC[C@]1(C(=O)O)[C@@H]2CC[C@H]1CN(c1nc(-c3cc(C)ccc3OCc3ccc(C(=O)N4CCCCC4)cc3C)cs1)C2 [Compound 258]
27 | 37 (≈ 64.6 µM) | 0.15 (≈ 0.262 µM) | 24 | – | CCN(CCC#N)C(=O)c1ccc(COc2ccc(C)cc2-c2csc(N3C[C@H]4CC[C@@H](C3)[C@H]4C(=O)O)n2)c(C)c1 [Compound 307]
